# Reference: patent US20050009924A1 (priority 2003, published 2005)
# Columns and labels:
# human hepatoma G2 cells = assay: Cytotoxicity assay (XTT colorimetric), Hep G2; assay type: cell-based; settings: Homo sapiens, HepG2; 48 h of drug exposure
# rat glioma C6 cells = assay: Cytotoxicity assay (XTT colorimetric), C6 cells; assay type: cell-based; settings: Rattus norvegicus, C6; 48 h of drug exposure
# [1] = system: hepatitis B virus transfected hepatoma cell lines, HepG 2.2.15 cells; assay: Cytotoxicity assay, 2.2.15 cells; assay type: cell-based, human; settings: Homo sapiens, HepG2.2.15; 48 h of drug exposure
# [2] = system: transcriptional activity of hTERT; assay: SEAP reporter assay of hTERT expression, PhTERT-SEAP (hTERT-BJ1); assay type: cell-based, human; settings: PhTERT-SEAP (hTERT-BJ1)
# Method in brief: (§1)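 Read-out: rate of absorbance rise at 405 nm from p-nitrophenyl phosphate (12 mM final) hydrolysis by secreted alkaline phosphatase in heat-treated (65° C, 10 min) culture medium. Drugs at varying amounts were applied for 24 h after a 24 h pre-culture at 37° C.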
# [3] = system: transcriptional activity of hTERT; assay: SEAP reporter assay of hTERT expression, PhTERT-SEAP (H1299); assay type: cell-based, human; settings: PhTERT-SEAP(hTERT-H1299)
# Method in brief: as §1
# [4] = MTT relative viability, PhTERT-SEAP (H1299) cells; settings: human
# [5] = MTT relative viability, PhTERT-SEAP (hTERT-BJ1) cells; settings: human
# [6] = hTERT-BJ1 cells stably transfected with PhTERT-SEAP reporter
# [7] = hTERT-BJ1 cells, stable PhTERT-SEAP reporter clone
# [8] = Homo sapiens, 2.3 μM, read-out: Relative SEAP activity (%)
# [9] = Homo sapiens, 23 μM, read-out: Relative SEAP activity (%)
# [10] = Homo sapiens, 238 μM, read-out: Relative SEAP activity (%)
# [11] = Homo sapiens, NCI-H1299, 2.3 μM, read-out: Relative SEAP activity (%)
# [12] = Homo sapiens, NCI-H1299, 23 μM, read-out: Relative SEAP activity (%)
# [13] = Homo sapiens, NCI-H1299, 238 μM, read-out: Relative SEAP activity (%)
# [14] = Homo sapiens, 2.1 μM, read-out: Relative SEAP activity (%)
# [15] = Homo sapiens, 21 μM, read-out: Relative SEAP activity (%)
# [16] = Homo sapiens, 218 μM, read-out: Relative SEAP activity (%)
# [17] = Homo sapiens, NCI-H1299, 2.1 μM, read-out: Relative SEAP activity (%)
# [18] = Homo sapiens, NCI-H1299, 21 μM, read-out: Relative SEAP activity (%)
# [19] = Homo sapiens, NCI-H1299, 218 μM, read-out: Relative SEAP activity (%)
structure (smiles),measurement,setting,value
"O=C(CCl)Nc1ccc(NC(=O)CCl)c2c1C(=O)c1ccccc1C2=O [VI1, 1,4-Bis(chloroacetamido)-9,10-anthracenedione]",IC50,human hepatoma G2 cells,> 20 µM
same,IC50,rat glioma C6 cells,> 20 µM
same,IC50,[1],> 20 µM
same,SEAP/vibility,[2]; 2.5 μM,1.23
same,SEAP/vibility,[2]; 25 μM,1.53
same,SEAP/vibility,[2]; 255 μM,2.76
same,activity at 2.5 µM,"[2]; Homo sapiens, 2.5 μM, read-out: Relative SEAP activity (%)",123 ± 16.8%
same,activity at 25 µM,"[2]; Homo sapiens, 25 μM, read-out: Relative SEAP activity (%)",129 ± 17.7%
same,activity at 255 µM,"[2]; Homo sapiens, 255 μM, read-out: Relative SEAP activity (%)",121 ± 10.9%
same,SEAP/vibility,[3]; 2.5 μM,0.98
same,SEAP/vibility,[3]; 25 μM,1.14
same,SEAP/vibility,[3]; 255 μM,4.66
same,activity at 2.5 µM,"[3]; Homo sapiens, NCI-H1299, 2.5 μM, read-out: Relative SEAP activity (%)",102 ± 5.3%
same,activity at 25 µM,"[3]; Homo sapiens, NCI-H1299, 25 μM, read-out: Relative SEAP activity (%)",110 ± 8.8%
same,activity at 255 µM,"[3]; Homo sapiens, NCI-H1299, 255 μM, read-out: Relative SEAP activity (%)",97 ± 7.1%
same,melting point,,285 to 287 °C
same,"viability at 48 h, 2.5 µM",[4],104 ± 5.5%
same,"viability at 48 h, 25 µM",[4],96 ± 3.8%
same,"viability at 48 h, 255 µM",[4],21 ± 1.5%
same,"viability at 48 h, 2.5 µM",[5]; [6],101 ± 2.7%
same,"viability at 48 h, 25 µM",[5]; [6],84 ± 6.3%
same,"viability at 48 h, 255 µM",[5]; [7],44 ± 4.7%
"O=C(CCCl)Nc1ccc(NC(=O)CCCl)c2c1C(=O)c1ccccc1C2=O [VI7, 1,4-Bis(3-chloropropionamido)-9,10-anthracenedione]",IC50,human hepatoma G2 cells,> 20 µM
same,IC50,rat glioma C6 cells,> 20 µM
same,IC50,[1],> 20 µM
same,SEAP/vibility,[2]; 2.3 μM,0.36
same,SEAP/vibility,[2]; 23 μM,0.48
same,SEAP/vibility,[2]; 238 μM,0.23
same,activity at 2.3 µM,[2]; [8],36 ± 12.1%
same,activity at 23 µM,[2]; [9],40 ± 10.8%
same,activity at 238 µM,[2]; [10],14 ± 11.8%
same,SEAP/vibility,[3]; 2.3 μM,0.88
same,SEAP/vibility,[3]; 23 μM,1.28
same,SEAP/vibility,[3]; 238 μM,2.30
same,activity at 2.3 µM,[3]; [11],87 ± 2.3%
same,activity at 23 µM,[3]; [12],87 ± 3.1%
same,activity at 238 µM,[3]; [13],68 ± 5.3%
same,melting point,,230 to 231 °C
same,"viability at 48 h, 2.3 µM",[4],99 ± 6%
same,"viability at 48 h, 23 µM",[4],68 ± 2.4%
same,"viability at 48 h, 238 µM",[4],30 ± 3.8%
same,"viability at 48 h, 2.3 µM",[5]; [7],102 ± 4.1%
same,"viability at 48 h, 23 µM",[5]; [7],82 ± 8.2%
same,"viability at 48 h, 238 µM",[5]; [7],60 ± 2.5%
"CC(Cl)C(=O)Nc1ccc(NC(=O)C(C)Cl)c2c1C(=O)c1ccccc1C2=O (stereo not drawn) [VI9, 1,4-Bis(2-chloropropionamido)-9,10-anthracenedione]",IC50,human hepatoma G2 cells,> 20 µM
same,IC50,rat glioma C6 cells,> 20 µM
same,IC50,[1],> 20 µM
same,SEAP/vibility,[2]; 2.3 μM,0.97
same,SEAP/vibility,[2]; 23 μM,1.49
same,SEAP/vibility,[2]; 238 μM,1.68
same,activity at 2.3 µM,[2]; [8],91 ± 10.8%
same,activity at 23 µM,[2]; [9],101 ± 8.4%
same,activity at 238 µM,[2]; [10],81 ± 8.5%
same,SEAP/vibility,[3]; 2.3 μM,0.96
same,SEAP/vibility,[3]; 23 μM,1.40
same,SEAP/vibility,[3]; 238 μM,7.82
same,activity at 2.3 µM,[3]; [11],106 ± 5.5%
same,activity at 23 µM,[3]; [12],109 ± 1%
same,activity at 238 µM,[3]; [13],85 ± 5.3%
same,melting point,,233 to 235 °C
same,"viability at 48 h, 2.3 µM",[4],111 ± 5.5%
same,"viability at 48 h, 23 µM",[4],77 ± 3.4%
same,"viability at 48 h, 238 µM",[4],11 ± 1.4%
same,"viability at 48 h, 2.3 µM",[5]; [7],94 ± 10.4%
same,"viability at 48 h, 23 µM",[5]; [7],68 ± 8.2%
same,"viability at 48 h, 238 µM",[5]; [7],48 ± 2.3%
"O=C1c2ccccc2C(=O)c2c(NC(=O)C3CCCCC3)ccc(NC(=O)C3CCCCC3)c21 [VI17, 1,4-Bis(cyclohexaneamido)-9,10-anthracenedione]",IC50,human hepatoma G2 cells,> 20 µM
same,IC50,rat glioma C6 cells,> 20 µM
same,IC50,[1],> 20 µM
same,SEAP/vibility,[2]; 2.1 μM,0.64
same,SEAP/vibility,[2]; 21 μM,0.44
same,SEAP/vibility,[2]; 218 μM,0.68
same,activity at 2.1 µM,[2]; [14],65 ± 16%
same,activity at 21 µM,[2]; [15],42 ± 24.3%
same,activity at 218 µM,[2]; [16],56 ± 16.3%
same,SEAP/vibility,[3]; 2.1 μM,1.00
same,SEAP/vibility,[3]; 21 μM,1.05
same,SEAP/vibility,[3]; 218 μM,1.38
same,activity at 2.1 µM,[3]; [17],104 ± 1.8%
same,activity at 21 µM,[3]; [18],100 ± 6.2%
same,activity at 218 µM,[3]; [19],93 ± 2.5%
same,melting point,,309 to 310 °C
same,"viability at 48 h, 2.1 µM",[4],104 ± 6.4%
same,"viability at 48 h, 21 µM",[4],96 ± 5.8%
same,"viability at 48 h, 218 µM",[4],67 ± 1.5%
same,"viability at 48 h, 218 µM",[5]; [6],83 ± 4.2%
same,"viability at 48 h, 2.1 µM",[5]; [7],102 ± 3%
same,"viability at 48 h, 21 µM",[5]; [7],97 ± 2.4%
"O=C(CCC1CCCC1)Nc1ccc(NC(=O)CCC2CCCC2)c2c1C(=O)c1ccccc1C2=O [VI19, 1,4-Bis(3-cyclopentanepropionamido)-9,10-anthracenedione]",IC50,human hepatoma G2 cells,> 20 µM
same,IC50,rat glioma C6 cells,> 20 µM
same,IC50,[1],> 20 µM
same,SEAP/vibility,[2]; 2.0 μM,0.84
same,SEAP/vibility,[2]; 20 μM,0.87
same,SEAP/vibility,[2]; 205 μM,0.87
same,activity at 2 µM,"[2]; Homo sapiens, 2.0 μM, read-out: Relative SEAP activity (%)",90 ± 9.2%
same,activity at 20 µM,"[2]; Homo sapiens, 20 μM, read-out: Relative SEAP activity (%)",87 ± 5.5%
same,activity at 205 µM,"[2]; Homo sapiens, 205 μM, read-out: Relative SEAP activity (%)",87 ± 8%
same,SEAP/vibility,[3]; 2.0 μM,1.06
same,SEAP/vibility,[3]; 20 μM,1.09
same,SEAP/vibility,[3]; 205 μM,1.15
same,activity at 2 µM,"[3]; Homo sapiens, NCI-H1299, 2.0 μM, read-out: Relative SEAP activity (%)",111 ± 9.4%
same,activity at 20 µM,"[3]; Homo sapiens, NCI-H1299, 20 μM, read-out: Relative SEAP activity (%)",116 ± 8%
same,activity at 205 µM,"[3]; Homo sapiens, NCI-H1299, 205 μM, read-out: Relative SEAP activity (%)",109 ± 9.2%
same,melting point,,166 to 167 °C
same,"viability at 48 h, 2 µM",[4],105 ± 2.1%
same,"viability at 48 h, 20 µM",[4],106 ± 4.7%
same,"viability at 48 h, 205 µM",[4],95 ± 1.3%
same,"viability at 48 h, 205 µM",[5]; [6],100 ± 5.8%
same,"viability at 48 h, 2 µM",[5]; [7],107 ± 3.6%
same,"viability at 48 h, 20 µM",[5]; [7],101 ± 4.7%
"O=C(Nc1ccc(NC(=O)c2cccs2)c2c1C(=O)c1ccccc1C2=O)c1cccs1 [VI22, 1,4-Bis(2-thiopheneamido)-9,10-anthracenedione]",IC50,human hepatoma G2 cells,> 20 µM
same,IC50,rat glioma C6 cells,> 20 µM
same,IC50,[1],> 20 µM
same,SEAP/vibility,[2]; 2.1 μM,0.80
same,SEAP/vibility,[2]; 21 μM,0.93
same,SEAP/vibility,[2]; 218 μM,1.07
same,activity at 2.1 µM,[2]; [14],94 ± 20.2%
same,activity at 21 µM,[2]; [15],92 ± 17.4%
same,activity at 218 µM,[2]; [16],90 ± 22.7%
same,SEAP/vibility,[3]; 2.1 μM,0.93
same,SEAP/vibility,[3]; 21 μM,0.98
same,SEAP/vibility,[3]; 218 μM,1.16
same,activity at 2.1 µM,[3]; [17],100 ± 3.1%
same,activity at 21 µM,[3]; [18],105 ± 5.9%
same,activity at 218 µM,[3]; [19],97 ± 4.9%
same,melting point,,321 to 322 °C
same,"viability at 48 h, 2.1 µM",[4],108 ± 3.7%
same,"viability at 48 h, 21 µM",[4],107 ± 8.5%
same,"viability at 48 h, 218 µM",[4],84 ± 4.3%
same,"viability at 48 h, 218 µM",[5]; [6],84 ± 6.9%
same,"viability at 48 h, 2.1 µM",[5]; [7],118 ± 10.6%
same,"viability at 48 h, 21 µM",[5]; [7],99 ± 8.2%
